{
  "source": "patent US20240180920A1",
  "about": "“CERTAIN FASCIN BINDING COMPOUNDS FOR SPINOGENESIS” (Spinogenix, Inc., priority 2021, published 2024)",
  "key": {"[1]": {"tested_on": "primary mouse hippocampal neurons", "assay": "Synaptic density (colocalized PSD95/VGlut elements per length of dendrite) in treated neurons, FIG. 1", "format": "cell-based", "details": "10 μM compared with 500 nM and 50 nM, 24 hours", "experimental": "Specifically, primary mouse hippocampal neurons were treated on day 14 in culture with one of the four compounds, each at concentrations of 10 μM, 500 nM, and 50 nM, or with control (vehicle (0.1% DMSO)) for 24 hours. Following the treatments, neurons were fixed in 4% paraformaldehyde and processed for staining with phalloidin and immunolabeling with antibodies to the postsynaptic marker PSD95, and the presynaptic marker VGlut. Images were acquired using a laser scanning confocal microscope and analyzed for the number of colocalized pre and post synaptic elements per length of dendrite. Studies were performed across 3 biological preparations of primary neurons, with a minimum of 12 dendritic segments analyzed per treatment/prep. Graphing and statistical analyses of synaptic density data were performed with Prism software."}, "[2]": {"biological_target": "fascin actin-binding site 2 (Homo sapiens, UniProt Q16658)", "details": "stated as known; cited from earlier work"}, "fascin": {"biological_target": "fascin (Homo sapiens, UniProt Q16658)", "details": "stated as known; cited from earlier work"}},
  "data": [
    {"smiles": "N=C(N)NCCCCC(=O)Nc1cc(C(F)(F)F)cc(NC(=O)c2cc(C(=O)Nc3cc(C(F)(F)F)cc(NC(=O)CCCCNC(=N)N)c3O[C@@H]3CCNC3)ncn2)c1O[C@@H]1CCNC1", "note": "(racemic) [brilacidin]", "values": [
      {"measurement": "concentration dependence of activity (synaptic density)", "setting": "[1]", "result": "higher activities at the concentration of 10 μM than at lower concentrations"}
    ]},
    {"smiles": "C/C(=N\\NC(=N)N)c1cc(NC(=O)CCCCCCCCC(=O)Nc2cc(/C(C)=N/NC(=N)N)cc(/C(C)=N/NC(=N)N)c2)cc(/C(C)=N/NC(=N)N)c1", "note": "[semapimod]", "values": [
      {"measurement": "concentration dependence of activity (synaptic density)", "setting": "[1]", "result": "higher activities at the concentration of 10 μM than at lower concentrations"}
    ]},
    {"smiles": "CN(C)CCCN1c2ccccc2CCc2ccccc21", "note": "[imipramine]", "values": [
      {"measurement": "concentration dependence of activity (synaptic density)", "setting": "[1]", "result": "higher activities at the concentration of 10 μM than at lower concentrations"},
      {"measurement": "interaction with or binding to fascin", "setting": "[2]", "result": "known to interact with or bind fascin at actin-binding site 2"},
      {"measurement": "effect on fascin's actin-bundling activity", "setting": "fascin", "result": "interact or inhibit fascin's actin-bundling activity"}
    ]}
  ]
}
